Legend:
[1] = tested on: IKKγ; experiment: IKKγ phosphorylation (S85) and mono-ubiquitination after irradiation (immunoprecipitation / Western blot); format: cell-based; conditions: irradiation (IR, 20 Gy); 1 hour pre-treatment
Method: Fig.7: (A) Immunoprecipitation of IKKγ from HEK293 lysates pre-treated for 1 hour with DMSO, MW01 or MW05, then irradiated (IR, 20 Gy) and lysed. (B) Western blot analysis of MEF cells pre-treated with DMSO, MW01, MW05 or ATM inhibitor KU55933 and irradiated (IR, 20 Gy). Lysates were subjected to SDS-PAGE/WB. The specific IKKγ S85 band (lower band) was identified by induction following irradiation and by sensitivity to ATMi and λ- phosphatase (λ-PP) treatment. (C) Western blot analysis of U2os cells pre-treated for 1 hour with the indicated substances, irradiated (IR, 20 Gy) and whole cell lysates probed for poly(ADP)-ribose. (D) Western blot analysis of cytoplasmic and nuclear fractions from U2-OS cells for p-ATM (S 1981), after 1 hour pre-treatment with DMSO, MW01 (10 µM), or MW05 (10 µM) and 45 min following irradiation (IR, 20 Gy). PARP1 and LDHA are used as loading controls for nuclear and cytoplasmic fractions respectively. […]
To identify inhibitors that selectively prevent DNA damage-induced NF-κB activation, we established a high-throughput screening platform quantifying p65 nuclear translocation, an essential step in NF-κB activation (Hayden and Ghosh, 2008). […] The IC50s of p65 nuclear translocation following both stimuli were determined for 21 compounds. […]

[2] = target: T1, JAK2 (Homo sapiens, UniProt O60674); experiment: Kinase panel study; format: biochemical; conditions: read-out: Percentage of inhibition; for inhibition at 1 µM: 1000nM; for inhibition at 10 µM: 10000nM
T1 construct: purchased Thermo Fisher Scientific
T1 sequence (O60674 whole entry): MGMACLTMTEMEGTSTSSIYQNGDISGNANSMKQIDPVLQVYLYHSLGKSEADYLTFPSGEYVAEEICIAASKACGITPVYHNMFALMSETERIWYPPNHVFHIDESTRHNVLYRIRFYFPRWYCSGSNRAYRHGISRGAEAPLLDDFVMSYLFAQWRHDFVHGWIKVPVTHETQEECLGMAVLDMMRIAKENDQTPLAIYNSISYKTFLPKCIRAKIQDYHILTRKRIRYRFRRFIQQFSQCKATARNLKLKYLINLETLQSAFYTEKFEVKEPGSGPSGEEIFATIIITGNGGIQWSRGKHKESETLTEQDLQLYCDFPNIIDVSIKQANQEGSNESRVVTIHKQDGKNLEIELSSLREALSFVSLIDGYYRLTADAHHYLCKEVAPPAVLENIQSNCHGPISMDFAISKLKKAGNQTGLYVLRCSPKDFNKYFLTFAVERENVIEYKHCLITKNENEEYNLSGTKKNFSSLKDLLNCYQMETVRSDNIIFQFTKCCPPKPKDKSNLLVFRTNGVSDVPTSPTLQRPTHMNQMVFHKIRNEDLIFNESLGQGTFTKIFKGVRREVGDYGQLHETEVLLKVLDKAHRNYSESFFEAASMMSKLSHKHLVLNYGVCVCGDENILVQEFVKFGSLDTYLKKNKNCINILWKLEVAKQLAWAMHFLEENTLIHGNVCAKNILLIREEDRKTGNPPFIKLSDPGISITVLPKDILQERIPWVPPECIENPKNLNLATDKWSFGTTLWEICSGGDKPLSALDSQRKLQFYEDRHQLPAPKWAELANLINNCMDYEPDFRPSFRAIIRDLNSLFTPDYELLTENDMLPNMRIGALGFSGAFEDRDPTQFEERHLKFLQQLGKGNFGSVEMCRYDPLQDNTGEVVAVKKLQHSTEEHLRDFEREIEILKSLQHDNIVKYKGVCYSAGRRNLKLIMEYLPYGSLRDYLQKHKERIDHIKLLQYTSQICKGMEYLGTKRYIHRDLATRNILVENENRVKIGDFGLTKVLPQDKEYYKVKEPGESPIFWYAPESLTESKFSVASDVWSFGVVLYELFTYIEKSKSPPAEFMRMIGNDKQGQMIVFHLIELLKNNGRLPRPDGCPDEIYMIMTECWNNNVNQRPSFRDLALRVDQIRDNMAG
Outline: (§1)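 In vitro, kinase panel; ZLyte or Adapta SOP; single-concentration testing (1 or 10 µM); output = % inhibition, plus IC50 in panel.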

[3] = target: T2, PRKCD (PKC delta) (Homo sapiens, UniProt Q05655); experiment: Kinase panel study; format: biochemical; conditions: read-out: Percentage of inhibition; for inhibition at 1 µM: 1000nM; for inhibition at 10 µM: 10000nM
T2 construct: purchased Thermo Fisher Scientific
T2 sequence (Q05655 whole entry): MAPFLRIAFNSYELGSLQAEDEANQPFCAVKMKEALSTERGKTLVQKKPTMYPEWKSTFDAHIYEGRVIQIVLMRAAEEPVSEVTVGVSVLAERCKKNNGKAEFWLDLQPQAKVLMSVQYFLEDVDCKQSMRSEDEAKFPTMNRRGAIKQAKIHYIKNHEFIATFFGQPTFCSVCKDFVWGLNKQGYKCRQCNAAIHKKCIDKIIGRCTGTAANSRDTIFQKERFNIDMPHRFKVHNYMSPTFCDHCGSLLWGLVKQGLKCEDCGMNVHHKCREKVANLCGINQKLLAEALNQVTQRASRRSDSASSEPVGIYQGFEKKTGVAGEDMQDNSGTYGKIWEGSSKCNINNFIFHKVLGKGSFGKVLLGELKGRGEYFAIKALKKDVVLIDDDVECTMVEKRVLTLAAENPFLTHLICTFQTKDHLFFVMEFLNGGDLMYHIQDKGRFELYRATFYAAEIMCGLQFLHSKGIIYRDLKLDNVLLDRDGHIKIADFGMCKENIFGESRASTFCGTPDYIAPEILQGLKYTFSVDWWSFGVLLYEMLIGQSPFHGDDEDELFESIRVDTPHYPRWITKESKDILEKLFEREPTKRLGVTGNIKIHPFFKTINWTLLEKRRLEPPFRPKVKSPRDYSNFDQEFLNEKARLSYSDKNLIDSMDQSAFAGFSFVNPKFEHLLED
Outline: as §1

[4] = target: T3, PAK7 (KIAA1264) (Homo sapiens, UniProt Q9P286); experiment: Kinase panel study; format: biochemical; conditions: read-out: Percentage of inhibition; for inhibition at 1 µM: 1000nM; for inhibition at 10 µM: 10000nM
T3 construct: purchased Thermo Fisher Scientific
T3 sequence (Q9P286 whole entry): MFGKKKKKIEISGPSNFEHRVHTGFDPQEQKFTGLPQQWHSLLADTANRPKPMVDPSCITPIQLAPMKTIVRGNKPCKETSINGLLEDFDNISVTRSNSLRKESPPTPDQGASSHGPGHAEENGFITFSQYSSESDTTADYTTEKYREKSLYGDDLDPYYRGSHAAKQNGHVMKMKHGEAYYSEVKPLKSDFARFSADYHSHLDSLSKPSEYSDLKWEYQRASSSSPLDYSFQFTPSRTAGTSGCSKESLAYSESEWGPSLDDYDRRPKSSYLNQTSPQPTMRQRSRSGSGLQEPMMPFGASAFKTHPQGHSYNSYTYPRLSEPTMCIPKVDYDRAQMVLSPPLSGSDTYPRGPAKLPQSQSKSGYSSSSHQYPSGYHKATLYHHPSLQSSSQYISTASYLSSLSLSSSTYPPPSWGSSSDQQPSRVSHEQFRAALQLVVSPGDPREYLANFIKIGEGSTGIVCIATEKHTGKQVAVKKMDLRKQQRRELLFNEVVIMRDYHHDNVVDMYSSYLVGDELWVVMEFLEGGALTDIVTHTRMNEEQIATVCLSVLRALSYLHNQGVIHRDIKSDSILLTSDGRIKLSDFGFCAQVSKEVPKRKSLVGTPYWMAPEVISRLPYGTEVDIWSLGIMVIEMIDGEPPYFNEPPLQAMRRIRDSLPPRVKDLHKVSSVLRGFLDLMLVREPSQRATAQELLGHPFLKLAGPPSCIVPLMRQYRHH
Outline: as §1

[5] = target: T4, EPHA5 (Homo sapiens, UniProt P54756); experiment: Kinase panel study; format: biochemical; conditions: read-out: Percentage of inhibition; for inhibition at 1 µM: 1000nM; for inhibition at 10 µM: 10000nM
T4 construct: purchased Thermo Fisher Scientific
T4 sequence (P54756 25-1037): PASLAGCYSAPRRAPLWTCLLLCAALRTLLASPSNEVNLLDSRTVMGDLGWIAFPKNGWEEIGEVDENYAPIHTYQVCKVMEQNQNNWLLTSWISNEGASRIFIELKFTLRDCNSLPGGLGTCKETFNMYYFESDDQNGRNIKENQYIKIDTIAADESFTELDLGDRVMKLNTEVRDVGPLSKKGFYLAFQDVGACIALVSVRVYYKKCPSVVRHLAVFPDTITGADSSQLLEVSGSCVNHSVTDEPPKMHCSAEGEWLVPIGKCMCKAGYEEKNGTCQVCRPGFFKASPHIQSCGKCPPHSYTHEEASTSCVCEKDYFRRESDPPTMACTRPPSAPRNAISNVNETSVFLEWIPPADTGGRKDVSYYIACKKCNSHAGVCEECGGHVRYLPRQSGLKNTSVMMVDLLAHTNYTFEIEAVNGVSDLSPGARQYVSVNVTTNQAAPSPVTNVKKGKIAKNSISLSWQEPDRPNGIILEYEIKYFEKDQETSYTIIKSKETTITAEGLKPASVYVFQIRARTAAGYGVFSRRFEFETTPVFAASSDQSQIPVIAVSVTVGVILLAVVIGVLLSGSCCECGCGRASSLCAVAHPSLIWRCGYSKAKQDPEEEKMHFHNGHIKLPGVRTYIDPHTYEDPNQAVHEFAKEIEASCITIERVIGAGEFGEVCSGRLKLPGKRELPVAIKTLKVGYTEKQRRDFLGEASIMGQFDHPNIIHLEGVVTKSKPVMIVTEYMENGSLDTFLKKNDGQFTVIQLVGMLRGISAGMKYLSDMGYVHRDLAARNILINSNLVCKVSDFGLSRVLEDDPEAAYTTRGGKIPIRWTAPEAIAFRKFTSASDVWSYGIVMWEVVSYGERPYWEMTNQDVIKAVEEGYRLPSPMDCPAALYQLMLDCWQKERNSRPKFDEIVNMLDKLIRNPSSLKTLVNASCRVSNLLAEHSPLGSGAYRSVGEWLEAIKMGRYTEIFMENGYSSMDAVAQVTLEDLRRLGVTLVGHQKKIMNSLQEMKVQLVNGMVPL
Outline: as §1

[6] = target: T5, EGFR (ErbB1) L861Q (Homo sapiens, UniProt P00533, L861Q); experiment: Kinase panel study; format: biochemical; conditions: read-out: Percentage of inhibition; for inhibition at 1 µM: 1000nM; for inhibition at 10 µM: 10000nM
T5 construct: purchased Thermo Fisher Scientific
T5 sequence (P00533 25-1210 L861Q): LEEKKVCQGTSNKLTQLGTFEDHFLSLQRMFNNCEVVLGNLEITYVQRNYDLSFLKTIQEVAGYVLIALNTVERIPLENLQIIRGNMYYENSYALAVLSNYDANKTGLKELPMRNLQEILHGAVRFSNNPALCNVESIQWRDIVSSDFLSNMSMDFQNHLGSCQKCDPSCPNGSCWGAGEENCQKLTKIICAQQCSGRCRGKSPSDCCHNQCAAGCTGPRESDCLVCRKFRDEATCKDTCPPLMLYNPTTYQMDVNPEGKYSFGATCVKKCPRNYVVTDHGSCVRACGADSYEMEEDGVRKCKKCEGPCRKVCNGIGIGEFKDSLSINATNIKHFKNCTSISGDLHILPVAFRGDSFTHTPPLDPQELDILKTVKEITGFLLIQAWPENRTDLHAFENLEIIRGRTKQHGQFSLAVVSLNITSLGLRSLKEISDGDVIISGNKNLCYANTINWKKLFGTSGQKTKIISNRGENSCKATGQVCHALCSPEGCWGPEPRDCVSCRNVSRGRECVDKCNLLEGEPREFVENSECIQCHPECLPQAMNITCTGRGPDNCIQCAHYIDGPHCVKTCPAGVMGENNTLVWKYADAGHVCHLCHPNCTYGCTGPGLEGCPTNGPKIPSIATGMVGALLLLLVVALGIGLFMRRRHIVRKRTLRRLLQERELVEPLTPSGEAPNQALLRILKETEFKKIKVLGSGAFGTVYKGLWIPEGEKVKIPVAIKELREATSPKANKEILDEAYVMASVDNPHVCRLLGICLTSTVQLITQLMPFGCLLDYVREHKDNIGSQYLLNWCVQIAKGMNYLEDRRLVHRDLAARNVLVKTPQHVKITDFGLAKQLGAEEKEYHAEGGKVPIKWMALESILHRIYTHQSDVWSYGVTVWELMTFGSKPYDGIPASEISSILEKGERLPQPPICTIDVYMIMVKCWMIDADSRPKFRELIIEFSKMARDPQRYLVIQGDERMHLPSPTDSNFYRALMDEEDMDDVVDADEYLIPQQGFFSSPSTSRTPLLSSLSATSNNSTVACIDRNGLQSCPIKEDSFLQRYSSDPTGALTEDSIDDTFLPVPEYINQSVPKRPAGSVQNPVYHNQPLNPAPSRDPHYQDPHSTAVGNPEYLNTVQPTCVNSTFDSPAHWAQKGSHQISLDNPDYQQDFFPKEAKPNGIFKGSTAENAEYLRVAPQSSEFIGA
Outline: as §1

Structure (SMILES) | IR-induced IKKy phosphorylation and mono-ubiquitination [1] | inhibition at 1 µM [2] | inhibition at 10 µM [2] | inhibition at 1 µM [3] | inhibition at 10 µM [3] | inhibition at 1 µM [4] | inhibition at 10 µM [4] | inhibition at 1 µM [5] | inhibition at 10 µM [5] | inhibition at 1 µM [6] | inhibition at 10 µM [6]
COc1ccc2c(c1OC)c(=O)n1c3ccc(O)cc3c3ccnc2c31 [MW01, 5-Hydroxy-10,11-dimethoxy-9H-benzo[c]indolo[3,2,1-ij][1,5]naphthyridin-9-one] | inhibited | 15% | 48% | 6% | 17% | 2% | 11% | -4% | 7% | -9% | 8%
COc1ccc2cc3c(N)nn(C(=O)c4cccc(N(C)C)c4)c3nc2c1 [MW05, (3-Amino-7-methoxypyrazolo[3,4-b]quinolin-1-yl)-[3-(dimethylamino)phenyl]methanone] | inhibited | -3% | -20% | 14% | 0% | 15% | 13% | -8% | -16% | -6% | -18%

From EP4467141A1, “PYRAZOLO-QUINOLINES AS SELECTIVE INHIBITORS OF GENOTOXIC STRESS-INDUCED IKK/NF- KB PATHWAYS FOR CANCER THERAPY” (Max-Delbrück-Centrum für Molekulare Medizin in der …, priority 2023, dated 2024)
